Like-named read-outs stand apart in the source and are kept apart here.
Target: T1, human GPR119 (Homo sapiens, UniProt Q8TDV5)
T1 sequence (Q8TDV5 1-335): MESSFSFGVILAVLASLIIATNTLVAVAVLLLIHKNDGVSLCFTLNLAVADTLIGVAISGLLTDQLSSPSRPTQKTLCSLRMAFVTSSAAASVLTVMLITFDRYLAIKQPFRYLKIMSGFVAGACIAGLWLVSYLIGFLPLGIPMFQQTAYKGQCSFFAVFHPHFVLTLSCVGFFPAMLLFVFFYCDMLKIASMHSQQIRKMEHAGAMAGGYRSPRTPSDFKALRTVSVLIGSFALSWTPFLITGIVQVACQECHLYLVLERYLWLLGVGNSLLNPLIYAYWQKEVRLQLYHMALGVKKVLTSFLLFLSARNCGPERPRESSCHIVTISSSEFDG
Assay: Intracellular cAMP increase in human GPR119 introduced cells (Pharmacological Experiments 1 and 2)
Type: cell-based
Details: for GPR119 agonist effect: result in words, refers to Tables 12 and 13
Source text: The GPR119 agonist effect is studied by measuring the effect of an analyte on increase of intracellular amount of cAMP in human GPR119 introduced cells. The testing method is described below.
Human GPR119 gene (NM 178471) is purchased from ATCC (ATCC No. 10807349), and is amplyfied according to PCR to form BamHI site at 5′ side and Apa I site at 3′ side. The forward side primer is […] (sequence No. 1), and the reverse side primer is […] (sequence No. 2). The PCR conditions are described below.
(§1) The double-stranded DNA is thermally denatured using a DNA polymerase (KOD-Plus-Ver. 2; TOYOBO #KOD-211) at 98° C. for 10 seconds in one cycle. The denatured single-stranded DNA is annealed with the primers at 55° C. for 30 seconds. The DNA is subjected to an extension reaction at 68° C. for 1 minute and 15 seconds. The above-mentioned steps are repeated in 35 cycles. The PCR product is inserted into pcDNA5/FRT/TO (Invitrogen #V6520-20) plasmid. Flp-in T-Rex-293 cells (Invitorogen #R78007) are transfected with the obtained plasmid. The method of transfection is conducted in accordance with the protocol of the product.
The stable cell line expressing human GPR119 prepared in the above-mentioned method is plated on a 96-well plate at the concentration of 2,500 cells/well using Dulbecco's Modified Eagle Medium (DMEM) containing 10% fetal bovine serum (FBS). Twenty-four hours after plating, tetracyclin (Invitrogen #Q10019) is added at the final concentration of 20 ng/mL to induce hGPR119 gene expression. Twenty-four hours after, the medium is removed, and the cells are stimulated with an assay buffer (0.5 mM IBMX PBS(−)) containing the test compound at 37° C. for 30 minutes. The amount of the intracellular cAMP is measured using a commercially available kit (HitHunter™ cAMP XS+ Assay: GE Healthcare #90007503) and a reader (FLUOstar Optima: BMG LABTECH). The test compound is dissolved in 100% DMSO, and added at the final concentration of 1%.
Human GPR119 gene (NM 178471) was purchased from ATCC (ATCC No. 10807349), and is amplyfied according to PCR to form BamHI site at 5′ side and Apa I site at 3′ side. The primers were […] (sequence No. 1) and […] (sequence No. 2). The PCR conditions are described below.
as §1, with “was” for “is”, “were” for “are”
The stable cell line expressing human GPR119 prepared in the above-mentioned method was plated on a 96-well plate at the concentration of 2,500 cells/well using Dulbecco's Modified Eagle Medium (DMEM) containing 10% fetal bovine serum (FBS). Twenty-four hours after plating, tetracyclin (Invitrogen #Q10019) was added at the final concentration of 20 ng/mL to induce hGPR119 gene expression. Twenty-four hours after, the medium was removed, and the cells were stimulated with an assay buffer (0.5 mM IBMX PBS (−)) containing the test compound at 37° C. for 30 minutes. The amount of the intracellular cAMP was measured using a commercially available kit (HitHunter™ cAMP XS+ Assay: GE Healthcare #90007503) and a reader (FLUOstar Optima: BMG LABTECH). The test compound was dissolved in 100% DMSO, and added at the final concentration of 1%.
The examination was performed by the method similar to Example 61 Pharmacological experiment 1-(1), 1-(2).

[1] = Table 13, Pharmacological experiment 2, method similar to Example 61, read-out: EC50
[2] = Table 12, Flp-in T-Rex-293 cells stably expressing hGPR119, intracellular cAMP, 37° C. for 30 minutes, read-out: EC50

Row | SMILES | EC50 | also measured
1 | CC(C)OC(=O)N1CCC(c2cnc(Cn3ccc4cc(-n5cnnn5)cc(F)c43)cn2)CC1 [Example 38, Isopropyl 4-[5-[7-fluoro-5-(tetrazol-1-yl)indol-1-ylmethyl]pyrazin-2-yl]piperidine-1-carboxylate] | 16.5 nM | –
2 | CC(C)(C)OC(=O)N1CC=C(c2cnc(COc3ccc(S(C)(=O)=O)cc3)cn2)CC1 [Example 2, tert-Butyl 4-[5-(4-methanesulfonylphenoxymethyl)pyrazin-2-yl]-3,6-dihydro-2H-pyridine-1-carboxylate] | 76.5 nM | –
3 | CCc1cnc(N2CCC(c3cnc(Cn4ccc5cc(-n6cnnn6)cc(F)c54)cn3)CC2)nc1 [Example 42, 5-Ethyl-2-[4-[5-[7-fluoro-5-(tetrazol-1-yl)indol-1-ylmethyl]pyrazin-2-yl]piperidin-1-yl]pyrimidine] | – | EC50 [1]: 3.1 nM; GPR119 agonist effect: excellent GPR119 agonist effect
4 | CC1CN(C(=O)OC(C)(C)C)CC=C1c1cnc(COc2ccc(-n3cncn3)cc2)cn1 (stereo not drawn) [Example 17, tert-Butyl 3-methyl-4-[5-[4-(1,2,4-triazol-1-yl)phenoxymethyl]pyrazin-2-yl]-3,6-dihydro-2H-pyridine-1-carboxylate] | – | EC50 [2]: 124 nM
5 | CC(C)(C)OC(=O)N1CCC(c2cnc(COc3ccc(S(C)(=O)=O)cc3)nc2)CC1 [Example 1, tert-Butyl 4-[2-(4-methanesulfonylphenoxymethyl)pyrimidin-5-yl]piperidine-1-carboxylate] | – | EC50 [2]: 313 nM
6 | CC(C)(C)OC(=O)N1CCC(c2cnc(COc3ccc(S(C)(=O)=O)cc3)cn2)CC1 [Example 3, tert-Butyl 4-[5-(4-methanesulfonylphenoxymethyl)pyrazin-2-yl]piperidine-1-carboxylate] | 74.6 nM | –
7 | CC1CN(C(=O)OC(C)(C)C)CC=C1c1cnc(Cn2ccc3cc(S(C)(=O)=O)cnc32)cn1 (stereo not drawn) [Example 15, tert-Butyl 4-[5-(5-methanesulfonyl-1H-pyrrolo[2,3-b]pyridin-1-ylmethyl)pyrazin-2-yl]-3-methyl-3,6-dihydro-2H-pyridine-1-carboxylate] | – | EC50 [2]: 126 nM
8 | CC(C)(C)OC(=O)N1CCC(c2cnc(Cn3ccc4cc(S(C)(=O)=O)ccc43)nc2)CC1 [Example 4, tert-Butyl 4-[2-(5-methanesulfonylindol-1-ylmethyl)pyrimidin-5-yl]piperidine-1-carboxylate] | 62.4 nM | –
9 | CC(C)(C)OC(=O)N1CCC(c2cnc(Cn3ccc4cc(S(C)(=O)=O)cc(F)c43)cn2)CC1 [Example 28, tert-Butyl 4-[5-(7-fluoro-5-methanesulfonylindol-1-ylmethyl)pyrazin-2-yl]piperidine-1-carboxylate] | 7.6 nM | GPR119 agonist effect: excellent GPR119 agonist effect
10 | CC(C)(C)OC(=O)N1C2CCC1CC(c1cnc(COc3ccc(S(C)(=O)=O)cc3)cn1)C2 (stereo not drawn) [Example 11, tert-Butyl 3-[5-(4-methanesulfonylphenoxymethyl)pyrazin-2-yl]-8-azabicyclo[3.2.1]octane-8-carboxylate] | 67.3 nM | –
11 | Fc1cc(-n2cnnn2)cc2ccn(Cc3cnc(C4CCN(c5ncc(Br)cn5)CC4)cn3)c12 [Example 54, 5-Bromo-2-[4-[5-[7-fluoro-5-(tetrazol-1-yl)indol-1-ylmethyl]pyrazin-2-yl]piperidin-1-yl]pyrimidine] | – | EC50 [1]: 14.2 nM
12 | CC(C)(C)OC(=O)N1C2C=C(c3cnc(COc4ccc(S(C)(=O)=O)cc4)cn3)CC1CC2 (stereo not drawn) [Example 10, tert-Butyl 3-[5-(4-methanesulfonylphenoxymethyl)pyrazin-2-yl]-8-azabicyclo[3.2.1]oct-2-ene-8-carboxylate] | 99.8 nM | –
13 | CC(C)(C)OC(=O)N1CC=C(c2cnc(COc3ccc(-n4cnnn4)cc3F)cn2)CC1 [Example 12, tert-Butyl 4-[5-[2-fluoro-4-(tetrazol-1-yl)phenoxymethyl]pyrazin-2-yl]-3,6-dihydro-2H-pyridine-1-carboxylate] | 56.4 nM | –
14 | CC1CN(C(=O)OC(C)(C)C)CC=C1c1cnc(COc2ccc(S(C)(=O)=O)c(F)c2F)nc1 (stereo not drawn) [Example 24, tert-Butyl 4-[2-(2,3-difluoro-4-methanesulfonylphenoxymethyl)pyrimidin-5-yl]-3-methyl-3,6-dihydro-2H-pyridine-1-carboxylate] | – | EC50 [2]: 111 nM
15 | CC(C)(C)OC(=O)N1CCC(c2cnc(Cn3ccc4cc(-n5cnnn5)cc(F)c43)cn2)CC1 [Example 34, tert-Butyl 4-[5-[7-fluoro-5-(tetrazol-1-yl)indol-1-ylmethyl]pyrazin-2-yl]piperidine-1-carboxylate] | 2.9 nM | GPR119 agonist effect: excellent GPR119 agonist effect
16 | CC(C)(C)OC(=O)N1CCC(c2cnc(Cn3ccc4cc(-n5cnnn5)cc(F)c43)nc2)CC1 [Example 49, tert-Butyl 4-[2-[7-fluoro-5-(tetrazol-1-yl)indol-1-ylmethyl]pyrimidin-5-yl]piperidine-1-carboxylate] | 30.1 nM | –
17 | CC(C)OC(=O)N1CCC(c2cnc(Cn3ccc4cc(-n5cnnn5)cc(F)c43)nc2)CC1 [Example 50, Isopropyl 4-[2-[7-fluoro-5-(tetrazol-1-yl)indol-1-ylmethyl]pyrimidin-5-yl]piperidine-1-carboxylate] | 17.4 nM | –
18 | CC(C)OC(=O)N1CC=C(c2cnc(Cn3ccc4cc(S(C)(=O)=O)c(F)c(F)c43)cn2)C(C)C1 (stereo not drawn) [Example 29, Isopropyl 4-[5-(6,7-difluoro-5-methanesulfonylindol-1-ylmethyl)pyrazin-2-yl]-3-methyl-3,6-dihydro-2H-pyridine-1-carboxylate] | 35.7 nM | –
19 | CS(=O)(=O)c1cc(F)c2c(ccn2Cc2cnc(C3CCN(c4ncc(Br)cn4)CC3)cn2)c1 [Example 51, 5-Bromo-2-[4-[5-(7-fluoro-5-methanesulfonylindol-1-ylmethyl)pyrazin-2-yl]piperidine-1-yl]pyrimidine] | – | EC50 [1]: 5.4 nM; GPR119 agonist effect: excellent GPR119 agonist effect
20 | CC(C)(C)OC(=O)N1CC=C(c2cnc(Cn3ccc4cc(S(C)(=O)=O)c(F)c(F)c43)cn2)CC1 [Example 20, tert-Butyl 4-[5-(6,7-difluoro-5-methanesulfonylindol-1-ylmethyl)pyrazin-2-yl]-3,6-dihydro-2H-pyridine-1-carboxylate] | 21.9 nM | GPR119 agonist effect: excellent GPR119 agonist effect
21 | CC1CN(C(=O)OC(C)(C)C)CC=C1c1cnc(Cn2ccc3cc(S(C)(=O)=O)c(F)c(F)c32)cn1 (stereo not drawn) [Example 21, tert-Butyl 4-[5-(6,7-difluoro-5-methanesulfonylindol-1-ylmethyl)pyrazin-2-yl]-3-methyl-3,6-dihydro-2H-pyridine-1-carboxylate] | 21.4 nM | GPR119 agonist effect: excellent GPR119 agonist effect
